This is an account of results in patent US20080234326A1, “Novel Salts of Pantoprazole and (S) - Pantoprazole” (Altana Pharma AG, priority 2004, published 2008).

A short description of this data set: stability as a storage form. It is filed as physicochemical. The conditions noted are these: statement in words, no method or data given.

In the case of `COc1ccnc(C[S+]([O-])c2nc3cc(OC(F)F)ccc3[n-]2)c1OC.[Na+]` [sodium salt of (−)- or (S)-pantoprazole], the “formation of a stable storage form” value is “does not form a stable storage form”.
